Values of other authors as cited in patent US9110064B2, “Methods for diagnosis and treatment of endometrial cancer” (THE REGENTS OF THE UNIVERSITY OF CALIFORNIA, priority 2005, dated 2015).

System: PMP22
Settings: patients with Charcot Marie Tooth Type I

Structure (SMILES): CC(=O)[C@H]1CC[C@H]2[C@@H]3CCC4=CC(=O)CC[C@]4(C)[C@H]3CC[C@]12C [progesterone]
- PMP22 levels: restore normal PMP22 levels
- disease phenotype: ameliorated the disease phenotype
